# Source: publication PMC10220883, “Relating Molecular Dynamics Simulations to Functional Activity for Gly-Rich Membranolytic Helical Kiadin Peptides” (Pharmaceutics, 2023)
# No end group written: not given here.
# Tests used:
# [1] = system: human red blood cells (RBC); settings: cited from earlier work; for HC50 (haemolytic activity, text): 0.5% human erythrocytes in PBS
# [2] = system: Staphylococcus aureus ATCC 25923; design: method as in PMID 29553266; settings: cited from earlier work; for S. aureus MIC: microdilution, Mueller–Hinton broth, 5 × 10^5 CFU/mL, overnight 37 °C, no visual growth; for S. aureus MBC: no visible growth on MH agar after 18 h at 37 °C of aliquots from MIC, 2 × MIC, 4 × MIC wells
# [3] = system: MEC-1 chronic lymphocytic leukaemia cell line; test: MTT cytotoxicity assay; format: cell-based, human; design: Cytotoxicity MEC-1 (qualitative score): key to the marks not given beside the values; settings: for IC50 MEC-1 cells: tested range 5 to 50 µM
# Procedure: Cytotoxicity was also assessed on a human lymphocytic cell line by using the 3-(4,5-dimethylthiazol-2-yl)-2,5-diphenyl tetrazolium bromide (MTT) assay. The MEC-1 chronic lymphocytic leukaemia cell line was kindly provided by Prof. P. Macor (Department of Life Sciences, University of Trieste, IT). MEC-1 cells were cultured in RPMI 1640 complete medium supplemented with 2 mM L-glutamine, 100 U/mL penicillin, 100 µg/mL streptomycin and 10% foetal bovine serum (FBS) and were subcultured two/three times a week for not more than 20 passages. The colorimetric MTT assay was performed to assess the metabolic activity of cells plated onto 96-well culture plates (10^5 cells/well, V^f = 100 µL) that had been exposed to 5 to 50 µM kiadins for 24 h. Twenty microlitres of a stock MTT solution (5 mg/mL) were added to each well after 20 h and left to incubate for the remaining 4 h. The converted MTT dye was then solubilized with acidic isopropanol (0.04 N HCl in absolute isopropanol). Absorbance was measured at 540 and 630 nm using an automated microplate reader (EL311, BIO-TEK® Instruments, Charlotte, VT, USA). All measurements were carried out at least in triplicate. An IC50 value was estimated as the concentration of peptide causing a 50% decrease in viability, calculated using GraphPad Prism software.
# [4] = system: Escherichia coli ATCC 25922; design: method as in PMID 29553266; settings: cited from earlier work; for E. coli MIC: microdilution, Mueller–Hinton broth, 5 × 10^5 CFU/mL, overnight 37 °C, no visual growth; for E. coli MBC: no visible growth on MH agar after 18 h at 37 °C of aliquots from MIC, 2 × MIC, 4 × MIC wells
# [5] = system: human red blood cells (RBC); test: Haemolytic activity assay; format: cell-based; design: key to the marks not given beside the values
# Procedure: Haemolytic activity was previously reported by Roncevic et al. and was evaluated by incubating 0.5% erythrocytes provided by an informed healthy donor with serially diluted peptides in 96-well microtiter plates. Haemoglobin release was monitored at 450 nm. Triton-X was used as a positive control, and the incubation of red blood cells in PBS without peptides was the negative control. A HC50 value was calculated as the concentration causing 50% haemolysis.
# [6] = Surface plasmon resonance binding to immobilized liposomes; settings: SPR, L1 chip with DOPC LUVs, PBS, 0.5 to 16 μM peptide, affinity-steady state model; estimated; repeated three times; read-out: KD (equilibrium dissociation constant)
# Procedure: Large unilamellar vesicles (LUVs) were prepared as described by Morgera et al.. Briefly, dry 1,2-dioleoyl-sn-glycero-3-phosphocholine (DOPC) or phosphatidylglycerol:diphosphatidylglycerol (DPPG) was dissolved in chloroform/methanol (2:1) solution, then evaporated using a dry nitrogen stream and vacuum-dried for 24 h. The liposome cake was resuspended in 1 mL of sodium phosphate buffer (SPB) to a concentration of 5 mM phospholipid and spun for 1 h at 40 °C. The vesicles were then subjected to several freeze–thaw cycles before passing through a mini-extruder (Avanti Polar Lipids, Alabaster, AL, USA) with successive polycarbonate filters having 1, 0.4 and 0.1 μm pores before resuspending to a final phospholipid concentration of 0.4 mM. By calculating the surface area of a ∼100 nm liposome and taking into account the average area of a phospholipid headgroup (∼0.7 nm^2) (similar to the value determined in MD simulations), the concentration of the liposomes was estimated to be about 5 nM.
# Peptide–membrane interactions were studied using an X-100 instrument (Biacore, GE Lifesciences). LUVs were prepared using DOPC as described above. The extruded unilamellar LUVs were then diluted to result in ~1 mM phospholipid in PBS. The L1 sensor chip was preconditioned and loaded with the LUVs, as described previously. […]
Substance,"HC50 (haemolytic activity, text) [1]",S. aureus MIC [2] [mM],S. aureus MBC [2] [mM],"MEC-1 IC50 (concentration causing 50% decrease in viability) ([3]; MTT, 10^5 cells/well, 5 to 50 µM peptide, 24 h, RPMI 1640 with 10% FBS, at least triplicate) [µM]","IC50 MEC-1 cells ([3]; MTT, 24 h) [µM]",E. coli MIC [4] [mM],E. coli MBC [4] [mM],Cytotoxicity MEC-1 (qualitative score) [3],Cytotoxicity RBC (qualitative score) [5],"Haemolytic activity (in words) ([1]; 0.5% human erythrocytes, up to highest tested concentration)",Kd [6] [µM]
H-KIAKGALKALKIAKGALKAL-NH2 [kiadin-3],about 95 μM,16 to 32,32,>50,> 50,4,16,,,,
H-KIAKVALKALKIAKGALKAL-NH2 [kiadin-1],,0.5 to 1,1.5,,,0.75,0.75,+++,+++,,
H-KIALKALKALKALGKALKAL-NH2 [kiadin-6],,4,4,,,1 to 2,2 to 4,,,,
H-KIGKALGKALKALGKALGKA-NH2 [kiadin-4],,16 to 32,32,,,8,16,,,,
"KIAGKAGKIAKIAGKAGKIA-NH2 [kiadin-5, ab initio designed 20-residue amidated peptide with quadruple Gly substitution]",,>64,>64,,,>64,>64,,,not to be haemolytic up to the highest tested concentration,
KIAKGALKALKIAKVALKAL-NH2 [kiadin-2],,8 to 16,8 to 16,,,0.25 to 0.5,0.5 to 1,++,++,,
KIAKVALKALKIAKVALKAL-NH2 [diPGLa-H],about 22 μM,0.75,1.5,,9 ± 3,1.5,1.5,,,,~5
